Several values for one entry are separate records, joined by “and”; a condition that tells them apart may be missing. Equal entries are not always repeated. Blank lines part the entries; values can stand above or below the molecule they belong to.
Assay: solvent given as SMILES

absorption maximum (in ClCCl): 321 nm
SMILES: CCOC(=O)c1c(-c2cc3ccccc3oc2=O)nn(-c2cccc(C)c2)c1C(=O)OCC

SMILES: c1ccc(-c2nc3c(c4c2-c2ccccc2CC4)-c2ccccc2CC3)cc1
absorption maximum (in C1CCOC1): 314 nm | absorption maximum (in CC#N): 308 nm | absorption maximum (in CCCCCC): 309 nm | absorption maximum (in CCOC(C)=O): 314 nm | absorption maximum (in CO): 318 nm | absorption maximum (in CS(C)=O): 316 nm | absorption maximum (in Cc1ccccc1): 312 nm | absorption maximum (in ClCCl): 318 nm

absorption maximum (in ClCCl): 436 nm
SMILES: CC(C)(C)c1ccc(-c2ccc(-c3ccc(N(c4ccccc4)c4ccccc4)cc3)c3nsnc23)cc1

absorption maximum (in CC#N): 343 nm | absorption maximum (in ClCCl): 358 nm
SMILES: O=c1c2cc(Br)ccc2nc2n1[B-](F)(F)[n+]1ccccc1-2

absorption maximum (in C1CCOC1): 338 nm | absorption maximum (in CC#N): 338 nm | absorption maximum (in CN(C)C=O): 336 nm | absorption maximum (in ClCCl): 336 nm | absorption maximum (in c1ccccc1): 338 nm
SMILES: CCN1c2ccc(-c3cc(-c4ccccc4)[nH]n3)cc2Sc2cc(-c3cc(-c4ccccc4)[nH]n3)ccc21

absorption maximum (in ClCCl): 651 nm
SMILES: CC(C)[Si](C#Cc1c2cc3ccccc3cc2c(C#Cc2ccc(F)cc2)c2cc3ccccc3cc12)(C(C)C)C(C)C

absorption maximum (in CCO): 330 nm
SMILES: COC(=O)C(NC(=O)CCNc1cccc2ccccc12)C(C)C (stereo unspecified)

SMILES: CC(C)(C)c1ccc2c(c1)c1cc(C(C)(C)C)ccc1n2-c1cc(C(=O)c2ccccn2)cc(-n2c3ccc(C(C)(C)C)cc3c3cc(C(C)(C)C)ccc32)c1
absorption maximum (in Cc1ccccc1): 394 nm

SMILES: CC1=[N+]2C(=C(c3ccc(C#N)cc3)c3ccc(C)n3[B-]2(F)F)C=C1
absorption maximum (in C1CCCCC1): 517 nm | absorption maximum (in C1CCOC1): 516 nm | absorption maximum (in CC#N): 512 nm | absorption maximum (in CCOC(C)=O): 513 nm | absorption maximum (in CO): 513 nm | absorption maximum (in Cc1ccccc1): 519 nm | absorption maximum (in ClC(Cl)Cl): 519 nm

absorption maximum (in C1CCOC1): 407 nm | absorption maximum (in CCCCCC): 399 nm | absorption maximum (in ClC(Cl)Cl): 402 nm | absorption maximum (in ClCCl): 410 nm
SMILES: O=C1c2cccc3c(-n4c5ccccc5c5ccccc54)ccc(c23)C(=O)N1C1CCCCC1

absorption maximum (in C1CCOC1): 417 nm
SMILES: COc1cc2c(c(OC)c1OC)c1ccc3cccc4c5cccc6oc(=O)c2c(c65)c1c34

absorption maximum (in CC#N): 320 nm
SMILES: C=CC(=O)Oc1ccc2cc(C=C)c(=O)oc2c1

SMILES: CCC1(CC)c2cc(/C=C/c3cc(Br)c(/C=C/c4ccc5c(c4)C(CC)(CC)c4cc(N6c7ccccc7Sc7ccccc76)ccc4-5)cc3Br)ccc2-c2ccc(N3c4ccccc4Sc4ccccc43)cc21
absorption maximum (in C1CCOC1): 439.91 nm | absorption maximum (in CC#N): 435.81 nm | absorption maximum (in CCCCCC): 433.42 nm | absorption maximum (in Cc1ccccc1): 439.91 nm | absorption maximum (in ClCCl): 426 nm

absorption maximum (in ClC(Cl)Cl): 706 nm
SMILES: COc1ccc2c(c1)SCC1=C(c3ccccc3)C3=Nc4c(-c5ccccc5)c5c(n4[B-](F)(F)[N+]3=C12)-c1ccc(OC)cc1SC5

SMILES: Cc1cc(C)c(B(c2c(C)cc(C)cc2C)c2ccc3ccc4cccc5ccc2c3c45)c(C)c1
absorption maximum (in Cc1ccccc1): 399 nm

absorption maximum (in CC#N): 311.5 nm and 312 nm | absorption maximum (in CO): 311.5 nm
SMILES: c1ccc(-c2nc(-c3ccccc3)c(-c3ccccc3)[nH]2)cc1

SMILES: C[n+]1ccc(-c2cc[n+](C)cc2)cc1
absorption maximum (in CC#N): 260 nm

absorption maximum (in C1CCOC1): 376 nm | absorption maximum (in CO): 380 nm
SMILES: CCOC(=O)C1=CN(c2ccccc2)C=C(C(=O)OCC)C1

absorption maximum (in CCCCCC): 570 nm | absorption maximum (in ClCCl): 570 nm
SMILES: CC(C)[Si](C#Cc1c2ccccc2c(C#C[Si](C(C)C)(C(C)C)C(C)C)c2nc3ccccc3nc12)(C(C)C)C(C)C

absorption maximum (in C1CCOC1): 392.5 nm | absorption maximum (in CC#N): 393 nm | absorption maximum (in CCO): 397 nm | absorption maximum (in CN(C)C=O): 404 nm | absorption maximum (in CO): 396 nm | absorption maximum (in CS(C)=O): 400.5 nm
SMILES: CSc1sc(C(C)=O)c2nn[nH]c(=O)c12

absorption maximum (in CC#N): 342 nm | absorption maximum (in CCCCOCCCC): 342 nm | absorption maximum (in CO): 340 nm
SMILES: c1ccc(Nc2nc(Nc3ccccc3)nc(Nc3ccc4ccc5cccc6ccc3c4c56)n2)cc1

absorption maximum (in ClCCl): 532 nm
SMILES: F[B-]1(F)n2c(Cl)c(Cl)c(Br)c2C(Oc2ccccc2)=C2C(Br)=C(Cl)C(Cl)=[N+]21

absorption maximum (in CCCCCC): 638 nm
SMILES: CC(C)[Si](C#Cc1c2nc3ccccc3nc2c(C#C[Si](C(C)C)(C(C)C)C(C)C)c2nc3c(ccc4cc5ccccc5cc43)nc12)(C(C)C)C(C)C

absorption maximum (in ClCCl): 386 nm
SMILES: COc1ccc(/C=C/c2cc(/C=C/c3ccc(N(c4ccccc4)c4ccccc4)cc3)nc(/C=C/c3ccc(N(C)C)cc3)n2)cc1

absorption maximum (in ClCCl): 457 nm
SMILES: Cc1cc(C)c(B2c3cc(C)ccc3N3c4ccc(C)cc4B(c4c(C)cc(C)cc4C)c4cc(C)cc2c43)c(C)c1

absorption maximum (in CC#N): 332 nm
SMILES: CCCC(=O)c1c(OCOC)c(OCOC)c(C(=O)CCC)c2c1OCO2

absorption maximum (in C1CCCCC1): 431 nm | absorption maximum (in C1CCOC1): 435 nm | absorption maximum (in CC#N): 434 nm
SMILES: COc1ccc2nc3c(nc2c1)c(-c1ccccc1)nn3C

absorption maximum (in ClC(Cl)Cl): 627 nm
SMILES: F[B-]1(F)n2cccc2C(c2ccccc2)=C2C=CC(c3cccc(OC4=[N+]5C(=C(c6ccccc6)c6cc(Br)c(-c7ccc[nH]7)n6[B-]5(F)F)C=C4Br)c3)=[N+]21

absorption maximum (in C1COCCO1): 344 nm | absorption maximum (in CC#N): 355 nm | absorption maximum (in CCCCO): 350 nm | absorption maximum (in CCCO): 350 nm | absorption maximum (in CCO): 351 nm | absorption maximum (in CCOC(C)=O): 342 nm | absorption maximum (in CO): 354 nm
SMILES: CN1C(C(=O)Nc2ccccn2)=C(O)c2sccc2S1(=O)=O

SMILES: COc1cc(-c2nc(-c3ccccc3)c(-c3ccccc3)[nH]2)c(OC)cc1/C=C/c1ccncc1
absorption maximum (in C1CCOC1): 394 nm | absorption maximum (in CC#N): 392 nm | absorption maximum (in CN(C)C=O): 397 nm | absorption maximum (in Cc1ccccc1): 398 nm

absorption maximum (in CCO): 557 nm
SMILES: Oc1cccc(O)c1-c1c2ccc(=[N+]3CCCCC3)cc-2oc2cc(N3CCCCC3)ccc12

absorption maximum (in ClCCl): 412 nm
SMILES: CCCCCCc1cc2c(s1)-c1cc3c(cc1NB2c1ccccc1)-c1sc(CCCCCC)cc1B(c1ccccc1)N3

absorption maximum (in CS(C)=O): 388 nm | absorption maximum (in ClCCl): 385 nm
SMILES: O=c1oc2ccccc2c2c1c(=O)oc1cc(O)cc(O)c12

absorption maximum (in ClCCl): 360 nm
SMILES: N#Cc1ccc(-c2cn3cc(C#N)c[n+]3[n-]2)cc1

absorption maximum (in ClCCl): 633 nm
SMILES: COC(=O)/C=C/C=C/C1=CC2=C(c3c(C)cc(C)cc3C)c3cc(/C=C/C=C/C(=O)OC)cn3[B-](F)(F)[N+]2=C1

SMILES: CCCCCCCCCCCCN1C(=O)c2cccc3c(N(Cc4ccccn4)Cc4ccccn4)c4ccccc4c(c23)C1=O
absorption maximum (in C1CCOC1): 497 nm | absorption maximum (in CCCCCC): 480 nm | absorption maximum (in CCO): 488 nm | absorption maximum (in Cc1ccccc1): 492 nm | absorption maximum (in ClCCl): 500 nm

absorption maximum (in CC#N): 404 nm
SMILES: CCOC(=O)c1c2c3c(ccc(C)c3c3cc4ccccc4cc13)N(C)C2=O

absorption maximum (in ClCCl): 290 nm
SMILES: O=P1(c2ccccc2)c2ccccc2-n2cccc21 (stereo unspecified)

SMILES: O=C(c1ccncc1)c1ccc(-n2c3ccccc3c3cc(-n4c5ccccc5c5ccccc54)ccc32)cc1
absorption maximum (in C1CCOC1): 342.64 nm | absorption maximum (in CCCCCC): 342.64 nm | absorption maximum (in Cc1ccccc1): 362 nm | absorption maximum (in ClCCl): 342.64 nm

SMILES: c1cc2c3c(c1)-c1ccc4c5c(ccc(c15)B3c1ccc3c5c(ccc-2c15)CC3)CC4
absorption maximum (in Cc1ccccc1): 495 nm

absorption maximum (in ClC(Cl)Cl): 620 nm
SMILES: CC1=C(Br)C(/C=C/c2ccncc2)=[N+]2C1=C(c1ccccc1)c1c(C)c(Br)c(/C=C/c3ccncc3)n1[B-]2(F)F

absorption maximum (in ClC(Cl)Cl): 438 nm
SMILES: F[B-]1(F)OC(c2ccc(N3CCCC3)cc2)=Cc2cccc[n+]21

absorption maximum (in ClC(Cl)Cl): 336 nm | absorption maximum (in ClCCl): 337 nm
SMILES: COc1cc2cc(OC)c(-c3ccc([N+](=O)[O-])cc3)cc2cc1-c1ccc([N+](=O)[O-])cc1

SMILES: CCCCCCCCCCOc1ccc(C#Cc2ccc(C#Cc3ccc(OCCCCCCCCCC)c(OCCCCCCCCCC)c3)c3nc4c5ccccc5c5ccccc5c4nc23)cc1OCCCCCCCCCC
absorption maximum (in C1CCOC1): 461 nm | absorption maximum (in Cc1ccccc1): 461 nm | absorption maximum (in ClCCl): 461 nm

absorption maximum (in CS(C)=O): 360 nm
SMILES: COc1cc2sc3nc(-c4ccccc4)sc3c2cc1OC

SMILES: Cc1c(C2=[N+]3C(=Cc4c(C)c5ccccc5n4[B-]3(F)F)c3ccccc32)[nH]c2ccccc12
absorption maximum (in C1CCOC1): 608 nm | absorption maximum (in CC#N): 591 nm | absorption maximum (in CCCCCC): 623 nm | absorption maximum (in CO): 598 nm | absorption maximum (in Cc1ccccc1): 625 nm | absorption maximum (in ClCCl): 611 nm

SMILES: N#Cc1ccccc1N1c2ccccc2C(c2ccccc2)(c2ccccc2)c2ccccc21
absorption maximum (in Cc1ccccc1): 356 nm

absorption maximum (in CC1CCCCC1): 386 nm | absorption maximum (in CC#N): 386 nm
SMILES: C(=C\c1c2ccccc2cc2ccccc12)/c1cnc2ccccc2c1

absorption maximum (in CO): 568 nm
SMILES: C#CCOc1ccc(/C=C/C2=[N+]3C(=C(c4ccc(N(CC)CC)cc4)c4c(C)cc(C)n4[B-]3(F)F)C(C)=C2)cc1

SMILES: CCCOc1ccc(/C=C/C=C/C=C/c2ccc([N+](=O)[O-])cc2)cc1
absorption maximum (in CC1CCCCC1): 414 nm | absorption maximum (in CC#N): 413 nm | absorption maximum (in Cc1ccccc1): 420 nm | absorption maximum (in ClCCl): 421 nm

absorption maximum (in O): 277 nm
SMILES: [NH3+]C(Cc1c[nH]c2ccccc12)C(=O)[O-] (stereo unspecified)

SMILES: CCCCC1(CCCC)c2cc(-c3ccc(C=C4C(=O)c5ccccc5C4=O)cc3)ccc2-c2ccc(-c3ccc(C=C4C(=O)c5ccccc5C4=O)cc3)cc21
absorption maximum (in C1CCOC1): 438 nm | absorption maximum (in CC(C)=O): 435 nm | absorption maximum (in CCCCCC): 418 nm | absorption maximum (in CS(C)=O): 445 nm | absorption maximum (in Cc1ccccc1): 437 nm | absorption maximum (in ClC(Cl)Cl): 445 nm

absorption maximum (in C1CCCCC1): 293.94 nm
SMILES: Cc1cccc2ccccc12

absorption maximum (in C1CCOC1): 443 nm
SMILES: CCCCCOc1cc2oc(=O)c3c4ccc(O)cc4c4ccc5cccc6c(c1)c2c3c4c56

absorption maximum (in CC#N): 280 nm | absorption maximum (in CCOC(C)=O): 280 nm | absorption maximum (in CO): 280 nm
SMILES: COC(=O)C[C@H](Cc1c[nH]c2ccccc12)NC(=O)[C@H](CC(=O)N[C@@H](CC1=CCc2ccccc21)C(=O)OC)NC(=O)OC(C)(C)C

absorption maximum (in CO): 402 nm
SMILES: COc1ccc(-c2cc(B(c3c(C)cc(C)cc3C)c3c(C)cc(C)cc3C)c(-c3sc(-c4ccc(OC)cc4)cc3P(=O)(c3ccccc3)c3ccccc3)s2)cc1

absorption maximum (in CC#N): 350 nm
SMILES: Cc1cc(C)c2nc3c(=O)[nH]c(=O)[nH]c3nc2c1

absorption maximum (in ClCCl): 341 nm
SMILES: c1ccc(-n2nc(-c3ccc(N4c5ccccc5Oc5ccccc54)cc3)nc2-c2ccccn2)cc1
